The target of test [1] is Ikaros (Homo sapiens, UniProt Q13422+Q96SW2). Description: Helios Cellular Degradation Assay (Ikaros readout). Further details: endogenous in cells; host or cells: Jurkat. In kind it is cell-based. Conditions: Jurkat cells, 72 h incubation, Ikaros-Alexa488 antibody staining, flow cytometry; read-out: Ikaros Jurkat IC50. Summed up:
(§1)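 Jurkat cells (80,000/well, RPMI+10% FBS) were treated with compound for 72 h at 37° C. After fixation and permeabilization they were stained with fluorescent antibodies to Helios, Ikaros and Aiolos. Intracellular protein levels were quantified by flow cytometry.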
For orientation: Flow cytometry measures light scatter and fluorescence of single cells or particles in a stream.

Test [2] addresses Helios (Homo sapiens, UniProt Q96SW2+Q9UKS7). Description: Helios Cellular Degradation Assay (Helios readout). It counts as cell-based. The arrangement: endogenous in cells; host or cells: Jurkat. The conditions noted are these: Jurkat cells, 72 h incubation, Helios-PE antibody staining, flow cytometry; read-out: Helios Jurkat IC50. Summed up:
as §1

SMILES strings stand for the structures. Where only a bound is given, the exact number is not on record here.

Helios, sequence (Q9UKS7 whole entry): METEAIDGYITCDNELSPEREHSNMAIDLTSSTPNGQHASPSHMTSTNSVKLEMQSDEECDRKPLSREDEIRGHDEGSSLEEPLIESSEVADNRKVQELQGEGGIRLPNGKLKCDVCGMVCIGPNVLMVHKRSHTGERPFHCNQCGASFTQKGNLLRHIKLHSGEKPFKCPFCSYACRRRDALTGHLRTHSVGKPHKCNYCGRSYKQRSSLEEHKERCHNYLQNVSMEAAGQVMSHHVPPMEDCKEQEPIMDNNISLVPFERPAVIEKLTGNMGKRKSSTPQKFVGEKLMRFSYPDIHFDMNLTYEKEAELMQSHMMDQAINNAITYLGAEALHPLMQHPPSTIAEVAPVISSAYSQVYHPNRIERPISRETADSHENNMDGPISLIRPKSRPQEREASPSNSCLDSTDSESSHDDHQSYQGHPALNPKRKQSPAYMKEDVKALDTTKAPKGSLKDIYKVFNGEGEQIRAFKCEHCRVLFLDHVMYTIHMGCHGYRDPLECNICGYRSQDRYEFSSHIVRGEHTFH
Helios, sequence (Q96SW2 whole entry): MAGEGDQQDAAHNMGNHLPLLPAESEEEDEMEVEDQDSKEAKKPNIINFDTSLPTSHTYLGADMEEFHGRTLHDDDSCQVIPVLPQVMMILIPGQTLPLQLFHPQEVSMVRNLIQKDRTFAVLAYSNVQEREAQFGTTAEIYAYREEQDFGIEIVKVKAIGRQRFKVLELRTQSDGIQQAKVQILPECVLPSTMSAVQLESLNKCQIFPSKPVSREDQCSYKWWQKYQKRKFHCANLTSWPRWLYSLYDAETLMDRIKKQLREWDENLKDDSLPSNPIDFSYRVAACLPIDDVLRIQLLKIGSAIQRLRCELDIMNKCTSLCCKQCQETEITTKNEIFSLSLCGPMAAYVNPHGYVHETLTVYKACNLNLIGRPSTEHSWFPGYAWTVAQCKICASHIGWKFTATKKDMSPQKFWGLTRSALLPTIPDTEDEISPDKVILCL
Helios, sequence (Q16531 whole entry partner): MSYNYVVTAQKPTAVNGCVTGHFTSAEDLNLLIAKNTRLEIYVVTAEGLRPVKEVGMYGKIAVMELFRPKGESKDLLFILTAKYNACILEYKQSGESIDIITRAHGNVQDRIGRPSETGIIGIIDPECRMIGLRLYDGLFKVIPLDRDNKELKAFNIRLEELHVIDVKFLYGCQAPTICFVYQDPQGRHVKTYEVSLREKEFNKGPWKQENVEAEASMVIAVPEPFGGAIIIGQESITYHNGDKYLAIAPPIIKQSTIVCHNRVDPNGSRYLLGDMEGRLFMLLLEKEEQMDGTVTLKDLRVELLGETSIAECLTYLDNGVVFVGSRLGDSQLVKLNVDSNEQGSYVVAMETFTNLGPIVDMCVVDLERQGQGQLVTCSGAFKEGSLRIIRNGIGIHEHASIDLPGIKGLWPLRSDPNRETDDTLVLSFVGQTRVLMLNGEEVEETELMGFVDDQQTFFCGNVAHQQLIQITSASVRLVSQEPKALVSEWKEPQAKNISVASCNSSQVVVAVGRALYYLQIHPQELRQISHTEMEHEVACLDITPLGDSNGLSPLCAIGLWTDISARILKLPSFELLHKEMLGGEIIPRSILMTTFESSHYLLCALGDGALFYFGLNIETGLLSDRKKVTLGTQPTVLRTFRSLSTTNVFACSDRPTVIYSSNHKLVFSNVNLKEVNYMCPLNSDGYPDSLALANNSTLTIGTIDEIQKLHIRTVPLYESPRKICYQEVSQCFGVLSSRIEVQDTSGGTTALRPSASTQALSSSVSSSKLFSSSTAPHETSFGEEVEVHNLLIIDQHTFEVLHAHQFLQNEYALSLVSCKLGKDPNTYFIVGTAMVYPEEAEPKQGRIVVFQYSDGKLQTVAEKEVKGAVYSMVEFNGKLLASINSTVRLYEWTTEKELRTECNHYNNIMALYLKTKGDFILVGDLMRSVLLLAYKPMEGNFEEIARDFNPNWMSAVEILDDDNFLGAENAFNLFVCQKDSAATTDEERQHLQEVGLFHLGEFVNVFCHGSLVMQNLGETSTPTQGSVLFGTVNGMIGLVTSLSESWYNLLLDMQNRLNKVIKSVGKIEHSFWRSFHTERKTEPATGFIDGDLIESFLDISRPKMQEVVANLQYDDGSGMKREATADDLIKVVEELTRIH
Ikaros, sequence (Q13422 whole entry): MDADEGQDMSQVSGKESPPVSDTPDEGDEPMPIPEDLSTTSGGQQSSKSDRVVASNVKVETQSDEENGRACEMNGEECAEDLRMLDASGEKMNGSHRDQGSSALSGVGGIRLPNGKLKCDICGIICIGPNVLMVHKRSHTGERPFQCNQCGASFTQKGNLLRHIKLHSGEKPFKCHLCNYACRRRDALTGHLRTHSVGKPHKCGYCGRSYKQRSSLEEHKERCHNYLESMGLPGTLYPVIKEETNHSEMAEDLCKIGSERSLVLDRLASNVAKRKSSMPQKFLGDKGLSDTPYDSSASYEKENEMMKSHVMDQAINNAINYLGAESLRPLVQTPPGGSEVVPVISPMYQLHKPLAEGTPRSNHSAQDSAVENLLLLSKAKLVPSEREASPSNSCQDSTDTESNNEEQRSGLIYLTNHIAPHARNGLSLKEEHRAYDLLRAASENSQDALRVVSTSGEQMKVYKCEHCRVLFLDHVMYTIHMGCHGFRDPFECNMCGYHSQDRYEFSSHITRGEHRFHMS
Ikaros, sequence (Q96SW2 whole entry): as the sequence (Q96SW2 whole entry) above
Ikaros, sequence (Q16531 whole entry partner): as the sequence (Q16531 whole entry partner) above

In the case of `Nc1ccc2c(-c3ccc4c(c3)CN(C3CCC(=O)NC3=O)C4=O)nccc2c1` (centres unmarked) [Example 133, 3-[5-(6-aminoisoquinolin-1-yl)-1-oxo-2,3-dihydro-1H-isoindol-2-yl]piperidine-2,6-dione], the DC50 in test [1] was ≥ 20000 nM; in test [2], 10 nM.
For `Cc1cc(-c2ccc3c(c2)CN(C2CCC(=O)NC2=O)C3=O)nc(C)c1N` (centres unmarked) [Example 119, 3-(5-(5-amino-4,6-dimethylpyridin-2-yl)-1-oxoisoindolin-2-yl)piperidine-2,6-dione] the same measures were ≥ 10000 nM and 240 nM.
For `Nc1ccc(Br)c(-c2ccc3c(c2)CN(C2CCC(=O)NC2=O)C3=O)n1` (centres unmarked) [Example 101, 3-(5-(6-amino-3-bromopyridin-2-yl)-1-oxoisoindolin-2-yl)piperidine-2,6-dione], in that order: ≥ 20000 nM and 470 nM.
Turning to `O=C1CCC(N2Cc3cc(-c4ccc5cc(Cl)ccc5n4)ccc3C2=O)C(=O)N1` (centres unmarked) [Example 27, 3-[5-(6-chloroquinolin-2-yl)-1-oxo-2,3-dihydro-1H-isoindol-2-yl]piperidine-2,6-dione], the DC50 in test [1] was > 20000 nM; in test [2], 25 nM.
Consider `O=C1CCC(N2Cc3cc(-c4nccc5c(F)cccc45)ccc3C2=O)C(=O)N1` (centres unmarked) [Example 20, 3-[5-(5-fluoroisoquinolin-1-yl)-1-oxo-2,3-dihydro-1H-isoindol-2-yl]piperidine-2,6-dione], for which the DC50 in test [1] worked out at 34 nM; in test [2], 20 nM.
For the molecule `CC(=O)N(C)c1nc(-c2ccc3c(c2)CN(C2CCC(=O)NC2=O)C3=O)cc2ccccc12` (centres unmarked) [Example 52, N-{3-[2-(2,6-Dioxopiperidin-3-yl)-1-oxo-2,3-dihydro-1H-isoindol-5-yl]isoquinolin-1-yl}-N-methylacetamide], the DC50 in test [1] was > 20000 nM; in test [2] it was 210 nM.
In the case of `CC(C)c1nc2ccccc2nc1-c1ccc2c(c1)CN(C1CCC(=O)NC1=O)C2=O` (centres unmarked) [Example 98, 3-(5-(3-isopropylquinoxalin-2-yl)-1-oxoisoindolin-2-yl)piperidine-2,6-dione], the DC50 is ≥ 20000 nM in test [1] and 860 nM in test [2].
`CC(=O)O[C@@H]1CCOc2nc(-c3ccc4c(c3)CN([C@H]3CCC(=O)NC3=O)C4=O)ccc21` [Example 128, (4R)-7-{2-[(3S)-2,6-dioxopiperidin-3-yl]-1-oxo-2,3-dihydro-1H-isoindol-5-yl}-2H,3H,4H-pyrano[2,3-b]pyridin-4-yl acetate]: the DC50 in test [1] was ≥ 20000 nM; in test [2], 2830 nM.
For `CCn1ncc2c(-c3ccc4c(c3)CN(C3CCC(=O)NC3=O)C4=O)nc(N)nc21` (centres unmarked) [Example 45, 3-(5-{6-amino-1-ethyl-1H-pyrazolo[3,4-d]pyrimidin-4-yl}-1-oxo-2,3-dihydro-1H-isoindol-2-yl)piperidine-2,6-dione], in that order: > 20000 nM and 430 nM.
For `O=Cc1cc2c(-c3ccc4c(c3)CN(C3CCC(=O)NC3=O)C4=O)nccc2s1` (centres unmarked) [Example 60, 4-[2-(2,6-dioxopiperidin-3-yl)-1-oxo-2,3-dihydro-1H-isoindol-5-yl]thieno[3,2-c]pyridine-2-carbaldehyde] the same measures were 160 nM and 15 nM.
For `COc1cc(C)cc(-c2ccc3c(c2)CN(C2CCC(=O)NC2=O)C3=O)n1` (centres unmarked) [Example 146, 3-(5-(6-methoxy-4-methylpyridin-2-yl)-1-oxoisoindolin-2-yl)piperidine-2,6-dione], in that order: ≥ 20000 nM and 190 nM.
On to `Cc1cc(C#N)c(-c2ccc3c(c2)CN(C2CCC(=O)NC2=O)C3=O)nc1N` (centres unmarked) [Example 180, 6-amino-2-(2-(2,6-dioxopiperidin-3-yl)-1-oxoisoindolin-5-yl)-5-methylnicotinonitrile], for which the results for the DC50 in test [1] and in test [2] were ≥ 10000 nM and 20 nM, respectively.
For `CC(=O)N1CCN(c2nc(-c3ccc4c(c3)CN(C3CCC(=O)NC3=O)C4=O)nc3ncccc23)CC1` (centres unmarked) [Example 55, 3-(5-(4-(4-acetylpiperazin-1-yl)pyrido[2,3-d]pyrimidin-2-yl)-1-oxoisoindolin-2-yl)piperidine-2,6-dione], in that order: 8100 nM and 1000 nM.
For `CS(=O)(=O)N1CCN(c2cc(N)nc(-c3ccc4c(c3)CN(C3CCC(=O)NC3=O)C4=O)c2)CC1` (centres unmarked) [Example 185, 3-(5-(6-amino-4-(4-(methylsulfonyl)piperazin-1-yl)pyridin-2-yl)-1-oxoisoindolin-2-yl) piperidine-2,6-dione] the same measures were ≥ 10000 nM and 6400 nM.
As for `N#Cc1cc(N)nc(-c2ccc3c(c2)CN(C2CCC(=O)NC2=O)C3=O)c1` (centres unmarked) [Example 149, 2-amino-6-(2-(2,6-dioxopiperidin-3-yl)-1-oxoisoindolin-5-yl)isonicotinonitrile], the DC50 in test [1] was ≥ 10000 nM; in test [2], 190 nM.
For `O=C1CCC(N2Cc3cc(-c4cnc5cc(Cl)ccc5n4)ccc3C2=O)C(=O)N1` (centres unmarked) [Example 18, 3-[5-(6-chloroquinoxalin-2-yl)-1-oxo-2,3-dihydro-1H-isoindol-2-yl]piperidine-2,6-dione], in that order: > 20000 nM and 120 nM.
In the case of `Nc1nc(-c2ccccc2)nc(-c2ccc3c(c2)CN(C2CCC(=O)NC2=O)C3=O)n1` (centres unmarked) [Example 73, 3-(5-(4-amino-6-phenyl-1,3,5-triazin-2-yl)-1-oxoisoindolin-2-yl)piperidine-2,6-dione], the DC50 is 450 nM in test [1] and 67 nM in test [2].
For `Nc1nccc(-c2ccc3c(c2)CN(C2CCC(=O)NC2=O)C3=O)n1` (centres unmarked) [Example 70, 3-(5-(2-aminopyrimidin-4-yl)-1-oxoisoindolin-2-yl)piperidine-2,6-dione], the DC50 in test [1] was > 20000 nM; in test [2], 480 nM.
Consider `Nc1cc(CO)cc(-c2ccc3c(c2)CN(C2CCC(=O)NC2=O)C3=O)n1` (centres unmarked) [Example 112, 3-(5-(6-amino-4-(hydroxymethyl)pyridin-2-yl)-1-oxoisoindolin-2-yl)piperidine-2,6-dione], for which the DC50 in test [1] is ≥ 10000 nM; in test [2] it was 420 nM.
For `Nc1nc2ccccc2nc1-c1ccc2c(c1)CN(C1CCC(=O)NC1=O)C2=O` (centres unmarked) [Example 5, 3-[5-(3-aminoquinoxalin-2-yl)-1-oxo-2,3-dihydro-1H-isoindol-2-yl]piperidine-2,6-dione], in that order: > 20000 nM and > 20000 nM.
For `COc1ccc2c(-c3ccc4c(c3)CN(C3CCC(=O)NC3=O)C4=O)nc(OC)cc2c1` (centres unmarked) [Example 58, 3-[5-(3,6-dimethoxyisoquinolin-1-yl)-1-oxo-2,3-dihydro-1H-isoindol-2-yl]piperidine-2,6-dione] the same measures were 9 nM and 1 nM.
For `Nc1ccc([N+](=O)[O-])c(-c2ccc3c(c2)CN(C2CCC(=O)NC2=O)C3=O)n1` (centres unmarked) [Example 79, 3-[5-(6-Amino-3-nitropyridin-2-yl)-1-oxo-2,3-dihydro-1H-isoindol-2-yl]piperidine-2,6-dione] the same measures were > 20000 nM and > 20000 nM.
On to `COc1ccc(N)nc1-c1ccc2c(c1)CN(C1CCC(=O)NC1=O)C2=O` (centres unmarked) [Example 106, 3-(5-(6-amino-3-methoxypyridin-2-yl)-1-oxoisoindolin-2-yl)piperidine-2,6-dione], for which the values for the DC50 in test [1] and in test [2] were ≥ 20000 nM and 20 nM, respectively.
Regarding `NC(=O)c1nc(-c2ccc3c(c2)CN([C@H]2CCC(=O)NC2=O)C3=O)cc2ccccc12` [Example 126, 3-{2-[(3S)-2,6-dioxopiperidin-3-yl]-1-oxo-2,3-dihydro-1H-isoindol-5-yl}isoquinoline-1-carboxamide], the results for the DC50 in test [1] and in test [2] were ≥ 20000 nM and 2990 nM, respectively.
For `CCOc1c(-c2ccc3c(c2)CN(C2CCC(=O)NC2=O)C3=O)nc(Cl)c2ccccc12` (centres unmarked) [Example 86, 3-(5-(1-chloro-4-ethoxyisoquinolin-3-yl)-1-oxoisoindolin-2-yl)piperidine-2,6-dione], in that order: 190 nM and 50 nM.
For `COC(=O)c1ccc2nc(-c3ccc4c(c3)CN(C3CCC(=O)NC3=O)C4=O)ccc2c1` (centres unmarked) [Example 31, methyl 2-[2-(2,6-dioxopiperidin-3-yl)-1-oxo-2,3-dihydro-1H-isoindol-5-yl]quinoline-6-carboxylate], in that order: > 20000 nM and > 20000 nM.
For `Cc1cc(C)nc(-c2ccc3c(c2)CN(C2CCC(=O)NC2=O)C3=O)c1` (centres unmarked) [Example 144, 3-(5-(4,6-dimethylpyridin-2-yl)-1-oxoisoindolin-2-yl)piperidine-2,6-dione], in that order: ≥ 20000 nM and 83 nM.
As to `O=C1CCC(N2Cc3cc(-c4ccc5cc(F)ccc5n4)ccc3C2=O)C(=O)N1` (centres unmarked) [Example 38, 3-[5-(6-fluoroquinolin-2-yl)-1-oxo-2,3-dihydro-1H-isoindol-2-yl]piperidine-2,6-dione], the DC50 was > 20000 nM in test [1] and 22 nM in test [2].
For `Nc1cc2cccnc2c(-c2ccc3c(c2)CN(C2CCC(=O)NC2=O)C3=O)n1` (centres unmarked) [Example 53, 3-[5-(6-Amino-1,7-naphthyridin-8-yl)-1-oxo-2,3-dihydro-1H-isoindol-2-yl]piperidine-2,6-dione], in that order: > 20000 nM and 85 nM.
For `Nc1ccc2cnc(-c3ccc4c(c3)CN(C3CCC(=O)NC3=O)C4=O)cc2c1` (centres unmarked) [Example 102, 3-(5-(6-aminoisoquinolin-3-yl)-1-oxoisoindolin-2-yl)piperidine-2,6-dione] the same measures were ≥ 20000 nM and 2 nM.
For `CN(C)C(=O)c1c(-c2ccc3c(c2)CN(C2CCC(=O)NC2=O)C3=O)nc(N)c2ccccc12` (centres unmarked) [Example 130, 1-amino-3-[2-(2,6-dioxopiperidin-3-yl)-1-oxo-2,3-dihydro-1H-isoindol-5-yl]-N,N-dimethylisoquinoline-4-carboxamide] the same measures were ≥ 20000 nM and 450 nM.

(Values after US12570671B2 (BRISTOL-MYERS SQUIBB COMPANY, priority 2020, dated 2026).)
